Experimental data from the OligoGym collection.
Several values for one entry are separate records, joined by “and”; a condition that tells them apart may be missing. Equal entries are not always repeated. After the bases stand the sugars from the 5' end (letter, count) and the backbone: PS all phosphorothioate, else s phosphorothioate and o phosphodiester by linkage. Methylation of C is not given here. k = constrained ethyl (cEt); d = 2'-deoxy (DNA)

These sequences were tested against MALAT1. Conditions: ASO, A431, 0.005 µM.

Sequence | target mRNA inhibition
AGAGATACCTGTCTGA (sugars k3 d10 k3, PS) | 22%
AGAGCATTGGAGATCA (sugars k3 d10 k3, PS) | 20%
AGAGGGCCTCTATTGC (sugars k3 d10 k3, PS) | 33%
AGATTAAAGTGTGATA (sugars k3 d10 k3, PS) | 27%
AGCAGTAACATCTGAT (sugars k3 d10 k3, PS) | 41%
AGCATTCCTTCGGATG (sugars k3 d10 k3, PS) | 14%
AGCATTGGAGATCAGC (sugars k3 d10 k3, PS) | 36%
AGCCCCCCACGGCCCG (sugars k3 d10 k3, PS) | 27%
AGCGAATGGCTTTGTC (sugars k3 d10 k3, PS) | 5%
AGCTGCAAACTTTAGA (sugars k3 d10 k3, PS) | 26%
AGCTTATGGAACTTGA (sugars k3 d10 k3, PS) | 16%
AGGCAAGTCCTCATTA (sugars k3 d10 k3, PS) | 16%
AGGCGAGCTGAGGCTT (sugars k3 d10 k3, PS) | 19%
AGGCTCGATGGAAAAA (sugars k3 d10 k3, PS) | 28%
AGGCTTTAAATGACGC (sugars k3 d10 k3, PS) | -11%
AGGGATTTGAACCCCG (sugars k3 d10 k3, PS) | -3%
AGGGTTATGCTTATTC (sugars k3 d10 k3, PS) | 63% and 60%
AGGTCATCTATTCACA (sugars k3 d10 k3, PS) | 39%
AGTATCAAATTATGAC (sugars k3 d10 k3, PS) | 14%
AGTCAAGCTCCTGACA (sugars k3 d10 k3, PS) | 13%
AGTCCTGCGACTTGCT (sugars k3 d10 k3, PS) | 26%
AGTGTTCCTGCATGTA (sugars k3 d10 k3, PS) | 31%
AGTTACTCCAGCATAA (sugars k3 d10 k3, PS) | 31%

Sequence | target mRNA inhibition
AGTTTACCACCTTTTG (sugars k3 d10 k3, PS) | 23%
AGTTTTCAGCAGTAGG (sugars k3 d10 k3, PS) | -21%
ATAAGGACAGCTAAGA (sugars k3 d10 k3, PS) | 8%
ATAATCTCCCACCTGT (sugars k3 d10 k3, PS) | 17%
ATACCTTAACATCTTG (sugars k3 d10 k3, PS) | 43%
ATACTATTGTCCCATA (sugars k3 d10 k3, PS) | 31%
ATAGTACTATAGCATC (sugars k3 d10 k3, PS) | 30%
ATATTGTGCTGTTACC (sugars k3 d10 k3, PS) | -9%
ATCAACAAAAGCCCAC (sugars k3 d10 k3, PS) | -12%
ATCAAGGATGTATATA (sugars k3 d10 k3, PS) | 0%
ATCAAGGCACTGATCA (sugars k3 d10 k3, PS) | 23%
ATCACTACTCCAAGCA (sugars k3 d10 k3, PS) | 20%
ATCAGAACAGTACTGC (sugars k3 d10 k3, PS) | 35%
ATCAGCTTCCGCTAAG (sugars k3 d10 k3, PS) | 4%
ATCAGTAGTAAGAATC (sugars k3 d10 k3, PS) | 23%
ATCATAATCTCCCACC (sugars k3 d10 k3, PS) | 20%
ATCATATTTTAAACGG (sugars k3 d10 k3, PS) | 32%
ATCATTAAGCCACTTC (sugars k3 d10 k3, PS) | 53% and 69%
ATCCAAGCTACTGGCT (sugars k3 d10 k3, PS) | 40%
ATCCCATCACTGAAGC (sugars k3 d10 k3, PS) | 36%
ATCCCTTCAGGATCAT (sugars k3 d10 k3, PS) | 19%
ATCTGATTCTAACAGC (sugars k3 d10 k3, PS) | 40%
